Results published in patent EP0052437A1, “Antibacterial compounds, processes for their preparation and compositions containing them” (BEECHAM GROUP PLC, priority 1980, dated 1982).
≈ marks a conversion by molar mass, not a printed value.

What was measured:
Type in all cases: cell-based
[1] = system: M. suipneumoniae ATCC 25095; assay: Anti-mycoplasmal in vitro MIC; details: Mesomycoplasma hyopneumoniae, ATCC25095, 144 h, Friis broth solidified with 0.9% agarose, 6 days incubation at 37°C
[2] = system: M. hyosynoviae ATCC 25591; assay: Anti-mycoplasmal in vitro MIC; details: 144 h, Friis broth solidified with 0.9% agarose, 6 days incubation at 37°C
[3] = system: M. suipneumoniae NCTC 10110; assay: Anti-mycoplasmal in vitro MIC; details: Mesomycoplasma hyopneumoniae, NCTC10110, 144 h, Friis broth solidified with 0.9% agarose, 6 days incubation at 37°C
[4] = system: M. suipneumoniae Str. 11; assay: Anti-mycoplasmal in vitro MIC; details: Mesomycoplasma hyopneumoniae, 144 h, Friis broth solidified with 0.9% agarose, 6 days incubation at 37°C
[5] = system: M. hyorhinis ATCC 23234; assay: Anti-mycoplasmal in vitro MIC; details: Mesomycoplasma hyorhinis, ATCC23234, 144 h, Friis broth solidified with 0.9% agarose, 6 days incubation at 37°C
[6] = system: M. suipneumoniae TAM 6N; assay: Anti-mycoplasmal in vitro MIC; details: Mesomycoplasma hyopneumoniae, TAM6N, 144 h, Friis broth solidified with 0.9% agarose, 6 days incubation at 37°C
[7] = system: M. suipneumoniae MS 16; assay: Anti-mycoplasmal in vitro MIC; details: Mesomycoplasma hyopneumoniae, MS16, 144 h, Friis broth solidified with 0.9% agarose, 6 days incubation at 37°C
[8] = system: M. suipneumoniae UCD 1; assay: Anti-mycoplasmal in vitro MIC; details: Mesomycoplasma hyopneumoniae, UCD1, 144 h, Friis broth solidified with 0.9% agarose, 6 days incubation at 37°C
[9] = system: M. suipneumoniae NB12; assay: Anti-mycoplasmal in vitro MIC; details: Mesomycoplasma hyopneumoniae, 144 h, Friis broth solidified with 0.9% agarose, 6 days incubation at 37°C
[10] = system: M. hyorhinis ATCC 25021; assay: Anti-mycoplasmal in vitro MIC; details: Mesomycoplasma hyorhinis, ATCC25021, 144 h, Friis broth solidified with 0.9% agarose, 6 days incubation at 37°C
[11] = system: Strep. dysgalactiae SPD1; assay: Veterinary bacteria MIC; details: Streptococcus dysgalactiae, Diagnostic Sensitivity Test Agar, 18 hours at 37°C
Method: (§1) The values were determined using a two fold serial dilutions.in Diagnostic Sensitivity Test Agar with an inoculum of 10^4 organisms and incubation for 18 hours at 37°C.

[12] = system: Past. multocida PA1; assay: Veterinary bacteria MIC; details: Pasteurella multocida, Diagnostic Sensitivity Test Agar, 18 hours at 37°C
Method: as §1

[13] = system: S. dublin S7; assay: Veterinary bacteria MIC; details: Salmonella enterica, Diagnostic Sensitivity Test Agar, 18 hours at 37°C
Method: as §1

[14] = system: Strep. uberis SPU1; assay: Veterinary bacteria MIC; details: Streptococcus uberis, Diagnostic Sensitivity Test Agar, 18 hours at 37°C
Method: as §1

[15] = system: E. Coli NCTC 10418; assay: Veterinary bacteria MIC; details: Escherichia coli, NCTC10418, Diagnostic Sensitivity Test Agar, 18 hours at 37°C
Method: as §1

[16] = system: Staph. aureus Oxford; assay: Veterinary bacteria MIC; details: Staphylococcus aureus, Diagnostic Sensitivity Test Agar, 18 hours at 37°C
Method: as §1

[17] = system: Bord. bronchiseptica BO8; assay: Veterinary bacteria MIC; details: Bordetella bronchiseptica, Diagnostic Sensitivity Test Agar, 18 hours at 37°C
Method: as §1

[18] = system: Past. multocida PA2; assay: Veterinary bacteria MIC; details: Pasteurella multocida, Diagnostic Sensitivity Test Agar, 18 hours at 37°C
Method: as §1

[19] = system: Past. haemolytica PA5; assay: Veterinary bacteria MIC; details: Mannheimia haemolytica, Diagnostic Sensitivity Test Agar, 18 hours at 37°C
Method: as §1

[20] = system: S. typhimurium S18; assay: Veterinary bacteria MIC; details: Salmonella enterica, Diagnostic Sensitivity Test Agar, 18 hours at 37°C
Method: as §1

[21] = system: Erysipelothrix rhusiopathiae NCTC 8163; assay: Veterinary bacteria MIC; details: NCTC8163, Diagnostic Sensitivity Test Agar, 18 hours at 37°C
Method: as §1

[22] = system: Strep. suis (group D) SPS11; assay: Veterinary bacteria MIC; details: Streptococcus suis, Diagnostic Sensitivity Test Agar, 18 hours at 37°C
Method: as §1

[23] = system: Bord. bronchiseptica BO9; assay: Veterinary bacteria MIC; details: Bordetella bronchiseptica, Diagnostic Sensitivity Test Agar, 18 hours at 37°C
Method: as §1

[24] = system: Strep. agalactiae SPA1; assay: Veterinary bacteria MIC; details: Streptococcus agalactiae, Diagnostic Sensitivity Test Agar, 18 hours at 37°C
Method: as §1

[25] = system: E. Coli E1; assay: Veterinary bacteria MIC; details: Escherichia coli, Diagnostic Sensitivity Test Agar, 18 hours at 37°C
Method: as §1

[26] = system: Staph. aureus 152; assay: Veterinary bacteria MIC; details: Staphylococcus aureus, Diagnostic Sensitivity Test Agar, 18 hours at 37°C
Method: as §1

[27] = system: Corynebacterium pyogenes CY1; assay: Veterinary bacteria MIC; details: Trueperella pyogenes, Diagnostic Sensitivity Test Agar, 18 hours at 37°C
Method: as §1

[28] = system: Staph. aureus B4; assay: Veterinary bacteria MIC; details: Staphylococcus aureus, Diagnostic Sensitivity Test Agar, 18 hours at 37°C
Method: as §1

[29] = system: Bacillus subtilis 6633; assay: Human bacteria MIC; details: nutrient agar with 5% chocolated horse blood, 18 hours at 37°C
Method: (§2) The values were determined by serial dilutions in nutrient agar with 5% chocolated horse blood after incubations for 18 hours at 37 °C.

[30] = system: Sarcina lutea 8340; assay: Human bacteria MIC; details: Micrococcus luteus, nutrient agar with 5% chocolated horse blood, 18 hours at 37°C
Method: as §2

[31] = system: Neisseria catarrhalis 1502; assay: Human bacteria MIC; details: nutrient agar with 5% chocolated horse blood, 18 hours at 37°C
Method: as §2

[32] = system: E. coli ESS; assay: Human bacteria MIC; details: Escherichia coli, nutrient agar with 5% chocolated horse blood, 18 hours at 37°C
Method: as §2

[33] = system: Corynebacterium xerosis 9755; assay: Human bacteria MIC; details: nutrient agar with 5% chocolated horse blood, 18 hours at 37°C
Method: as §2

[34] = system: Staph. aureus W2827; assay: Human bacteria MIC; details: Staphylococcus aureus, nutrient agar with 5% chocolated horse blood, 18 hours at 37°C
Method: as §2

[35] = system: Staph. aureus Russell; assay: Human bacteria MIC; details: Staphylococcus aureus, nutrient agar with 5% chocolated horse blood, 18 hours at 37°C
Method: as §2

[36] = system: K. aerogenes A; assay: Human bacteria MIC; details: Klebsiella aerogenes, nutrient agar with 5% chocolated horse blood, 18 hours at 37°C
Method: as §2

SMILES | MIC [1] [µg/mL] | MIC [2] [µg/mL] | MIC [3] [µg/mL] | MIC [4] [µg/mL] | MIC [5] [µg/mL] | MIC [6] [µg/mL] | MIC [7] [µg/mL] | MIC [8] [µg/mL] | MIC [9] [µg/mL] | MIC [10] [µg/mL] | MIC [11] [µg/mL] | MIC [12] [µg/mL] | MIC [13] [µg/mL] | MIC [14] [µg/mL] | MIC [15] [µg/mL] | MIC [16] [µg/mL] | MIC [17] [µg/mL] | MIC [18] [µg/mL] | MIC [19] [µg/mL] | MIC [20] [µg/mL] | other results
C/C(=C\C(=O)OCc1cccc(C#N)c1)CC1OCC(CC2OC2C(C)C(C)O)C(O)C1O (stereo not drawn) [Example 2, m-Cyanobenzyl monate A] | 0.05 (≈ 0.109 µM) | 0.05 (≈ 0.109 µM) | 0.05 (≈ 0.109 µM) | 0.05 (≈ 0.109 µM) | 0.025 (≈ 0.0544 µM) | 0.1 (≈ 0.218 µM) | 0.05 (≈ 0.109 µM) | 0.1 (≈ 0.218 µM) | 0.05 (≈ 0.109 µM) | 0.025 (≈ 0.0544 µM) | 0.312 (≈ 0.679 µM) | 0.625 (≈ 1.36 µM) | 80 (≈ 174 µM) | 0.312 (≈ 0.679 µM) | 80 (≈ 174 µM) | 0.625 (≈ 1.36 µM) | 20 (≈ 43.5 µM) | 0.156 (≈ 0.339 µM) | 2.5 (≈ 5.44 µM) | 80 (≈ 174 µM) | MIC [21]: 20 µg/mL (≈ 43.5 µM); MIC [22]: 2.5 µg/mL (≈ 5.44 µM); MIC [23]: 10 µg/mL (≈ 21.8 µM); MIC [24]: 0.625 µg/mL (≈ 1.36 µM); MIC [25]: 80 µg/mL (≈ 174 µM); MIC [26]: 0.625 µg/mL (≈ 1.36 µM); MIC [27]: > 80 µg/mL; MIC [28]: 1.25 µg/mL (≈ 2.72 µM); MIC [29]: 0.5 µg/mL (≈ 1.09 µM); MIC [30]: > 100 µg/mL; MIC [31]: 0.25 µg/mL (≈ 0.544 µM); MIC [32]: 0.5 µg/mL (≈ 1.09 µM); MIC [33]: > 100 µg/mL; MIC [34]: 1 µg/mL (≈ 2.18 µM); MIC [35]: 2.5 µg/mL (≈ 5.44 µM); MIC [36]: 100 µg/mL (≈ 218 µM)
C/C(=C\C(=O)OCc1ccccc1C#N)CC1OCC(CC2OC2C(C)C(C)O)C(O)C1O (stereo not drawn) [Example 1, o-Cyanobenzyl monate A] | 0.5 (≈ 1.09 µM) | ≤ 0.01 | 1 (≈ 2.18 µM) | 1 (≈ 2.18 µM) | 0.5 (≈ 1.09 µM) | 2.5 (≈ 5.44 µM) | 0.5 (≈ 1.09 µM) | 1 (≈ 2.18 µM) | 0.5 (≈ 1.09 µM) | 0.5 (≈ 1.09 µM) | 0.312 (≈ 0.679 µM) | 1.25 (≈ 2.72 µM) | > 80 | 0.156 (≈ 0.339 µM) | > 80 | 1.25 (≈ 2.72 µM) | > 80 | 0.156 (≈ 0.339 µM) | 10 (≈ 21.8 µM) | > 80 | MIC [21]: 80 µg/mL (≈ 174 µM); MIC [22]: 10 µg/mL (≈ 21.8 µM); MIC [23]: 10 µg/mL (≈ 21.8 µM); MIC [24]: 2.5 µg/mL (≈ 5.44 µM); MIC [25]: > 80 µg/mL; MIC [26]: 1.25 µg/mL (≈ 2.72 µM); MIC [27]: > 80 µg/mL; MIC [28]: 1.25 µg/mL (≈ 2.72 µM); MIC [29]: 2.5 µg/mL (≈ 5.44 µM); MIC [30]: > 100 µg/mL; MIC [31]: 0.5 µg/mL (≈ 1.09 µM); MIC [32]: 1 µg/mL (≈ 2.18 µM); MIC [33]: > 100 µg/mL; MIC [34]: 2.5 µg/mL (≈ 5.44 µM); MIC [35]: 1 µg/mL (≈ 2.18 µM); MIC [36]: > 100 µg/mL
C/C(=C\C(=O)OCc1cccc(C#N)c1)CC1OCC(C/C=C/C(C)C(C)O)C(O)C1O (stereo not drawn) [Example 5, m-Cyanobenzyl monate C] | 0.5 (≈ 1.13 µM) | 0.5 (≈ 1.13 µM) | 1 (≈ 2.25 µM) | 0.5 (≈ 1.13 µM) | 0.5 (≈ 1.13 µM) | 1 (≈ 2.25 µM) | 0.5 (≈ 1.13 µM) | 1 (≈ 2.25 µM) | 0.5 (≈ 1.13 µM) | 0.5 (≈ 1.13 µM) | 0.156 (≈ 0.352 µM) | 10 (≈ 22.5 µM) | > 80 | 0.156 (≈ 0.352 µM) | > 80 | 2.5 (≈ 5.64 µM) | > 80 | 5 (≈ 11.3 µM) | 40 (≈ 90.2 µM) | > 80 | MIC [21]: 80 µg/mL (≈ 180 µM); MIC [22]: > 80 µg/mL; MIC [23]: 20 µg/mL (≈ 45.1 µM); MIC [24]: 2.5 µg/mL (≈ 5.64 µM); MIC [25]: > 80 µg/mL; MIC [26]: 2.5 µg/mL (≈ 5.64 µM); MIC [27]: > 80 µg/mL; MIC [28]: 2.5 µg/mL (≈ 5.64 µM); MIC [29]: 2.5 µg/mL (≈ 5.64 µM); MIC [30]: > 100 µg/mL; MIC [31]: 2.5 µg/mL (≈ 5.64 µM); MIC [32]: 5 µg/mL (≈ 11.3 µM); MIC [33]: > 100 µg/mL; MIC [34]: 2.5 µg/mL (≈ 5.64 µM); MIC [35]: 2.5 µg/mL (≈ 5.64 µM); MIC [36]: > 100 µg/mL
